As usually defined, the EC50 is the concentration that produces a half-maximal response. For orientation: IC50 means the point on the concentration scale where inhibition reaches its midpoint.

The record followed here is patent US20250382621A1, “IMMUNE EFFECTOR CELL THERAPIES WITH ENHANCED EFFICACY” (Novartis AG, priority 2015, published 2025).

The subject of series [1] is Pan CD3+ T cells. The series can be described thus: Dose response of LSD1 inhibitors on T cell phenotypes. To be noted: for EC50: Homo sapiens, T-cell; for CD4+ Tscm percentage: at 100 nM.
Method: Cells were isolated from in vitro culture, washed once in MACS+0.5% BSA buffer, and stained on ice using either biotinylated Protein L followed by incubated with a fluorochrome-conjugated streptavidin reagent or an antibody recognizing the given target antigen. In all analyses, the population of interest was gated based on forward vs side scatter characteristics, followed by singlet gating, and live cells were gated.
The following parameters were investigated: • 1. Ratio of CD8/CD4 were calculated; • 2. % Tscm, Tem, Tem of CD3+ T cells; • 3. Ratios of Tscm/Tem and Tscm/Tcm of CD3+ T cells were calculated; • 4. % Tscm, Tem, Tem of CD8+ or CD4+ T cells were calculated; • 5. Ratios of Tscm/Tem and Tscm/Tcm of CD8+ or CD4+ T cells were calculated; and/or • 6. In the case of CAR+-T cells, percentage of Tscm, Tem, Tem of CD19-CAR+ T, and BCMA-10-CAR+ T cells were evaluated.
The Tscm population were evaluated as double CD45RA+CCR7+ or triple CD45RA+CCR7+CD62L+ in a given total live CD3+ or subset CD4+ or CD8+ T cell population. Tem were presented as double CD45RA−CCR7− and Tem as CD45RA−CCR7+ in a given total live CD3+ or subset CD4+ or CD8+ T cell population (FIG. 19 and FIG. 25 illustrate the gating strategies).
In all instances, LSD inhibitor compounds were either resuspended in water (H2O) and/or DMSO, depending on compound solubility. In all instances compounds were added throughout the ex vivo T cell culture, and T cells were washed extensively prior to assay. […] In the figures, “control” refers to vehicle with no LSD inhibitor compound added. For Pan CD3+ T cell expansion experiment, compound treatment was started at 4 h or 24 h after activation; for CART cell production, compound treatment was started at 48 h after viral transduction, and all treatments continued through culture period in all conditions.
Compounds were refreshed every 2-3 days when fresh media is replenished. Following 10 days of expansion, T cells were harvested and de-beaded and their phenotypes were analyzed by flow cytometry using antibodies against CD3, CD4, CD8, CD45RA, CCR7, CD62L, CD27 and CD28 plus live/dead dye to exclude the dead cell population.
Series [2] addresses T1, full-length LSD1 (Homo sapiens, UniProt O60341).
T1 construct: the full-length LSD1 and 0.5 pM FAD in reaction buffer
The series can be described thus: FL-LSD1 LC-MS assay. To be noted: 0.4 nM FL-LSD1, H3K4me1 peptide substrate, 60 min room temperature; read-out: LCMS IC50 (LSD1 IC50 as measured by LCMS). The series is classed as biochemical. An excerpt: Representative compounds of the present disclosure were serially and separately diluted 3-fold in DMSO to obtain a total of twelve concentrations. […] The data were then fit to a dose response equation using the program Helios to get the IC50 values of the test compound.

The subject of series [3] is T cells. The series can be described thus: T cell phenotype after expansion with LSD1 shRNA. Type of series: cell-based, human. To be noted: for enrichment of TSCM in resulting CD4+ T cell population: vs normal expansion. The method, then:
Flow cytometry was performed on a four laser Fortessa (Becton-Dickinson).
T cells were isolated by negative selection and expanded with anti-CD3/CD28 beads at a 3:1 ratio for 10 days. On day 1, T cells were transduced with lentiviral expression vectors containing LSD1 shRNA targeting sequences that co-expressed the fluorescent protein mCherry. Following expansion, T cell phenotypes of mCherry+ T cells were assessed by flow cytometry.

Where [4] appears, read: anti-CD3/CD28 beads 3:1, 10 days, mCherry+ cells.

Structures can show the parent of a compound that is named as a salt. Where two headings read alike, the source gives them in different places.

Consider `c1ccc([C@@H]2C[C@H]2NC2CCNCC2)cc1` (relative stereo) [LSD1i-GSK, rel-N-[(1R,2S)-2-Phenylcyclopropyl]-4-Piperidinamine hydrochloride (1:2)], for which the “total expansion rate of total cells” value in series [1] (10 day expansion) is “without changing the total expansion rate of total cells”. Besides, in series [1] (10 day expansion, dose escalation), the “ratio of CD8/CD4” value is “can significantly increase the ratio of CD8/CD4”. For the same molecule, the half-maximal effective concentration (EC50) in series [1] (read-out: EC50 for inducing Tscm CD3+ T cells) and in series [1] (read-out: EC50 for inducing Tscm CD8+ T cells) was 1.08 nM throughout. In addition, the “CD4+ Tscm percentage” value in series [1] was “about 5%”. Further, in series [1] (dose elevation, Tscm/Tcm unchanged), the “ratio of Tscm/Tem of CD3+ T cells” value is given as “increases in response to dose elevation”. Besides, the “ratio of Tscm/Tem of CD8+ T cells” value in series [1] (dose elevation, hardly seen in the CD4+ population) was “significantly increases in response to dose elevation”. For the same molecule, the “CD3+ Tscm and Tem percentage” value in series [1] (observed between 1 nM to 100 nM, Tcm remain the same) is reported as “could increase/sustain CD3+ Tscm, decrease Tem, in a dose responsive fashion”. Also, the “CD8+ Tscm, CD4+ Tscm and Tem percentage” value in series [1] (observed between 1 nM to 100 nM, Tcm unchanged) is “could increase/sustain CD8+ Tscm and CD4+ Tscm, decrease Tem, in a dose responsive fashion”.

For `Cc1cc2c(cc1C#N)c(-c1cccc(N)c1C)cn2[C@H]1CC[C@H](O)CC1` [Compound 93, Trans-3-(3-amino-2-methylphenyl)-1-(4-hydroxycyclohexyl)-6-methyl-1H-indole-5-carbonitrile], the “CD4+ Tscm percentage” value in series [1] was “about 5%”.

Consider `Cc1ccc(-c2ncc(OC[C@@H]3CCNC3)cc2-c2ccc(C#N)cc2)cc1` [Compound C, (R)-4-(5-(pyrrolidin-3-ylmethoxy)-2-(p-tolyl)pyridin-3-yl)benzonitrile], for which, in series [2], the IC50 is 30 nM.

Turning to “LSD1 2: shRNA to LSD1, sequence encoding shRNA SEQ ID NO: 127 (DNA CAGAAGGCCTAGACATTAAACCTCGAGGTTTAATGTCTAGGCCTTCTGTTTTTTGA)”, the “enrichment of TSCM in resulting CD4+ T cell population” value in series [3] (CD4+ T cells) is on record as “enriched in TSCM”. In addition, the “percentage of CD8+ T cells having the TSCM phenotype (CD45RA+CD62L+CCR7+CD27+CD95+)” value in series [3] (setting [4]) was approximately 50%.

B1: LSD1 1A: shRNA to LSD1, sequence encoding shRNA SEQ ID NO: 125 (nucleic acid)
DNA: CGGTTGCTAGAAGCTACATCTGTTAATATTCATAGCAGATGTAGCTTCTAGCAACCGTTTTTTGA
For B1, the “enrichment of TSCM in resulting CD4+ T cell population” value in series [3] (CD4+ T cells) is “enriched in TSCM”. For the same molecule, in series [3] (setting [4]), the “percentage of CD8+ T cells having the TSCM phenotype (CD45RA+CD62L+CCR7+CD27+CD95+)” value was approximately 50%.

B2: LSD1 1B: shRNA to LSD1, sequence encoding shRNA SEQ ID NO: 126 (nucleic acid)
DNA: CGGTTGCTAGAAGTTACATTTGTTAATATTCATAGCAGATGTAGCTTCTAGCAACCGTTTTTTGA
For B2, the “percentage of CD4+ T cells having the TSCM phenotype (CD45RA+CD62L+CCR7+CD27+CD95+)” value in series [3] (CD4+ T cells, anti-CD3/CD28 beads 3:1, 10 days, mCherry+ cells) is “up to 20%”. Moreover, the “percentage of CD8+ T cells having the TSCM phenotype (CD45RA+CD62L+CCR7+CD27+CD95+)” value in series [3] (setting [4]) is recorded as approximately 50%.
